The source of these data is article PMC10328743, “5-Nitro-3-(2-(4-phenylthiazol-2-yl)hydrazineylidene)indolin-2-one derivatives inhibit HIV-1 replication by a multitarget mechanism of action” (Frontiers in Cellular and Infection Microbiology, 2023).

One may read the CC50 as the concentration at which the toxic effect on the cells reaches its halfway point. One may read the EC50 as the concentration that produces a half-maximal response.

Data set [1] concerns the target T1, HIV-1 IN (LEDGF/p75-dependent) (Human immunodeficiency virus type 1 group M subtype B, UniProt P12497).
T1 construct: Preparation of recombinant full-length IN and LEDGF proteins; made in house; host or cells: E. coli BL21(DE3)
The experiment in a line: biochemical. It is filed as biochemical. To be noted: strand-transfer activity in the presence of LEDGF/p75; read-out: IC50 IN LEDGF-dependent integration. The protocol: (§1) Proteins were expressed in E. coli BL21(DE3). Briefly, His-IN was purified by loading the precipitate of cell lysate onto a Ni-Sepharose column and eluting with a […] imidazole gradient (0–500 mM) in a HEPES buffer (50 mM, pH 7.5) containing NaCl (1 M), CHAPS (7.5 mM), and β-mercaptoethanol (2 mM). FLAG-IN was purified by loading the precipitate of cell lysate onto a phenyl-sepharose and ammonium sulfate gradient (0–800 mM) in a HEPES (pH 7.5, 50 mM) buffer containing NaCl (200 mM), CHAPS (7.5 mM), and β-mercaptoethanol (2 mM). Peak fractions were pooled, loaded onto a heparin column, and eluted with an increasing NaCl gradient (200 mM to 1 M) in a HEPES (pH 7.5, 50 mM) buffer containing CHAPS (7.5 mm) and β-mercaptoethanol (2 mM). Fractions containing integrase were pooled and stored in glycerol (10%) at −80°C.
(§2) Briefly, IN (50 nM) was preincubated with increasing concentrations of compounds for 1 h at room temperature in a reaction buffer containing HEPES (20 mM, pH 7.5), DTT (1 mM), glycerol (1%), MgCl2 (20 mM), Brij-35 (0.05%), and bovine serum albumin (BSA) (0.1 mg/ml).

Data set [2] concerns the target T2, HIV-1 IN-IN subunit exchange (Human immunodeficiency virus type 1 group M subtype B, UniProt P12497).
T2 construct: Preparation of recombinant full-length IN and LEDGF proteins; made in house; host or cells: E. coli BL21(DE3)
Description: HTRF-based IN subunit exchange assay. It is filed as binding. The protocol: as §1
His and FLAG-tagged INs were mixed in Tris (pH 7.4, 25 mm) buffer containing NaCl (150 mm), MgCl2 (2 mM), Nonidet P-40 (0.1%), and BSA (1 mg/ml). Test compounds were then added to the mixture, and incubation was carried out for 2.5 h at room temperature.

The nature of data set [3]: Viability of infected MT4 cells (cytotoxicity). The class given is cell-based. To be noted: human, MT4 cells infected with HIV-1; infected MT4 cells viability; three independent experiments, average ± standard deviation. The protocol: (§3) HIV-1 replication was carried out in MT4 cells as previously reported ([Corona et al., 2016a]) using a molecular clone derived from the pNL4-3 ([Thierry et al., 2015]). A total of 120 ng of p24^gag antigen per 10^6 cells, corresponding to a multiplicity of infection (m.o.i.) of 0.3, was used for infection. […] Flow cytometry analysis was performed on a FACSCalibur flow cytometer (BD Biosciences, San Jose, CA, USA), and the results were analyzed using the […] software.

Data set [4] concerns MT4 cells. Description: Viability of infected MT4 cells (cytotoxicity). It is filed as cell-based. To be noted: no toxicity up to the highest concentration tested. On the procedure:
as §3

The next data set addresses T3, HIV-1 IN-LEDGF binding (Human immunodeficiency virus type 1 group M subtype B, UniProt P12497).
T3 construct: Preparation of recombinant full-length IN and LEDGF proteins; made in house; host or cells: E. coli BL21(DE3)
The experiment in a line: biochemical. The protocol:
as §1
Briefly, His-IN was preincubated with different concentrations of a compound in a buffer containing NaCl (150 mm), MgCl2 (2 mM), Nonidet P-40 (0.1%), BSA (1 mg/ml), and Tris (pH 7.4, 25 mm) for 30 min at room temperature. Then, FLAG-LEDGF was added to the reaction mixture, and a mixture of anti-His6-XL665 and anti-FLAG-EuCryptate antibodies was added.

For data set [5], the system named is HIV-1. Description: HIV-1 replication inhibition in MT4 cells. The class given is cell-based. To be noted: three independent experiments, average ± standard deviation, read-out: HIV-1 EC50. On the procedure: as §3
Data set [6] concerns the target T4, HIV-1 RT-associated RNase H (Human immunodeficiency virus type 1 group M subtype B, UniProt P04585).
T4 construct: The 1:1 ratio between the p66/p51 subunits was also verified; His tag (implied only by Ni-NTA IMAC purification); made in house; host or cells: Escherichia coli M15
The experiment in a line: HIV-1 DNA polymerase-independent RNase H activity determination. To be noted: wt HIV-1 RT; three independent experiments, average ± standard deviation; read-out: RNase H IC50. It is filed as biochemical. The protocol:
(§4) Escherichia coli strain M15 containing the p6HRT-prot vector (provided by Stuart Le Grice laboratory (NCI Frederick)) was grown to an optical density at 600 nm of 0.7 and induced with 1.7 mM of isopropyl β-D-1-thiogalactopyranoside (IPTG) for 4 h. Protein purification was carried out with a BioLogic LP system (Bio-Rad, Hercules, CA, USA) using a combination of immobilized metal affinity chromatography (IMAC) and ion exchange chromatography. Cell pellets were resuspended in lysis buffer (50 mM of sodium phosphate buffer, pH 7.8, containing 0.5 mg/mL of lysozyme), incubated on ice for 20 min, and, after the addition of NaCl to a final concentration of 0.3 M, were sonicated and centrifuged at 30,000 ×g for 1 h. The supernatant was loaded onto a Ni^2+-NTA-Sepharose column pre-equilibrated with loading buffer (50 mM of sodium phosphate buffer, pH 7.8, containing 0.3 M of NaCl, 10% glycerol, and 10 mM of imidazole) and washed thoroughly with wash buffer (50 mM of sodium phosphate buffer, pH 6.0, containing 0.3 M of NaCl, 10% glycerol, and 80 mM of imidazole). RT was eluted with an imidazole gradient in the wash buffer (0–0.5 M). Fractions were collected, and protein purity was checked by sodium dodecyl sulfate–polyacrylamide gel electrophoresis (SDS-PAGE) and found to be higher than 90%. The 1:1 ratio between the p66/p51 subunits was also verified. Enzyme-containing fractions were pooled and diluted 1:1 with 50 mM of sodium phosphate buffer, pH 7.0, containing 10% glycerol, and then loaded into a Hi-trap heparin HP GE (Healthcare LifeScience) pre-equilibrated with 10 column volumes of loading buffer (50 mM of sodium phosphate buffer, pH 7.0, containing 10% glycerol, and 150 mM of NaCl). The column was then washed with loading buffer, and the RT was eluted with Elute Buffer 2 (50 mM of sodium phosphate, pH 7.0, 10% glycerol, 1 M of NaCl). Fractions were collected, and the protein was dialyzed and stored in a buffer containing 50 mM of Tris-HCl, pH 7.0, 25 mM of NaCl, 1 mM of EDTA, and 50% glycerol. Catalytic activities and protein concentrations were determined. Enzyme-containing fractions were pooled, and aliquots were stored at −80°C.
HIV RT-associated RNase H activity was measured as described ([Corona et al., 2016b]) in a 100-µl reaction volume containing 50 mM of Tris-HCl buffer, pH 7.8, 6 mM of MgCl2, 1 mM of dithiothreitol (DTT), 80 mM of KCl, 0.25 µM of hybrid RNA/DNA 5′-[…]-Fluorescin-3′ (high-performance liquid chromatography (HPLC), dry, QC: Mass Check) (available from Metabion) 5′-Dabcyl-[…]-3′ (HPLC, dry, QC: Mass Check), increasing concentrations of inhibitors, whose dilution were made in water, and different amounts of enzymes according to a linear range of the dose–response curve. The reaction mixture was incubated for 1 h at 37°C and stopped by the addition of EDTA, and products were measured with a multilabel counter plate reader Victor 3 equipped with filters for 490/528 nm.

In another data set the target is T5, HIV-1 RT-associated RDDP (Human immunodeficiency virus type 1 group M subtype B, UniProt P04585).
T5 construct: The 1:1 ratio between the p66/p51 subunits was also verified; His tag (implied only by Ni-NTA IMAC purification); made in house; host or cells: Escherichia coli M15
The experiment in a line: HIV-1 RNA-dependent DNA polymerase activity determination. It is filed as biochemical. On the procedure: as §4
(§5) RDDP activity was measured as previously reported in 25-µl volume containing 60 mM of Tris‐HCl buffer, pH 8.1, 8 mM of MgCl2, 60 mM of KCl, 13 mM of DTT, 2.5 µM of poly(A)-oligo(dT), 100 µM of dTTP, increasing concentrations of inhibitors, whose dilution were made in water, and different amounts of enzymes according to a linear range of the dose–response curve. The reaction mixture was incubated for 30 min at 37°C and then stopped by the addition of EDTA. Reaction products were detected by pico green addition and measured with a multilabel counter plate reader Victor 3, equipped with filters for 502/523 nm.

The target in data set [7] is T6, HIV-1 IN (LEDGF-independent) (Human immunodeficiency virus type 1 group M subtype B, UniProt P12497).
T6 construct: Preparation of recombinant full-length IN and LEDGF proteins; made in house; host or cells: E. coli BL21(DE3)
Description: biochemical. To be noted: strand-transfer activity with omission of LEDGF/p75; read-out: IC50 IN LEDGF-independent integration. The protocol: as §1, §2

The test system of data set [8] is MT4 cells. To be noted: cited from earlier work.
In the next data set the test system is HIV-1 RT K103N (RDDP). The experiment in a line: RDDP activity of K103N HIV-1 RT. The class given is biochemical. The protocol: (§6) K103N, Y181C, and Y188L mutations were introduced into the p6HRT-prot vector using the QuikChange protocol (Agilent Technologies, Santa Clara, CA, USA). Enzymes were expressed and purified as the wt-HIV-1 RT.
as §5

A further data set has as its system HIV-1 RT Y181C (RDDP). The experiment in a line: RDDP activity of Y181C HIV-1 RT. It is filed as biochemical. On the procedure:
as §6, §5

For another data set, the system named is HIV-1 RT Y188L (RDDP). Description: RDDP activity of Y188L HIV-1 RT. The class given is biochemical. On the procedure:
as §6, §5

For data set [9], the system named is HIV-1. To be noted: read-out: HIV-1 EC50; viral replication in MT4 cells; ref Corona et al. (2014a); cited from earlier work.
[10] abbreviates: Human immunodeficiency virus 1, MT4, viral replication in MT4 cells.
Where [11] appears, read: wt HIV-1 RT, three independent experiments, average ± standard deviation, read-out: RDDP IC50.

Where two headings read alike, the source gives them in different places. Some results are limits rather than exact numbers.

As for `O=C1Nc2ccc([N+](=O)[O-])cc2/C1=N/Nc1nc(-c2ccc(Cl)cc2)cs1` [1a], the IC50 is 22.4 ± 4.65 µM in data set [1]; 22.8 ± 2.6 µM in data set [2]; more than 100 µM on HIV-1 IN-LEDGF binding; 4.6 ± 1.4 µM in [6]; 10 ± 0.5 µM at HIV-1 RT-associated RDDP (setting [11]); 100 µM in data set [7]. In addition, the CC50 in data set [3] is more than 100 µM. In addition, the “toxicity against MT4 cells” value in the data set on MT4 cells [4] is more than 100 µM. Moreover, the EC50 with HIV-1 [5] (setting [10]) is less than 20 µM; in the data set with HIV-1 [5] (viral replication in MT4 cells), 25 ± 2.1 µM.
Turning to `O=C1Nc2ccc([N+](=O)[O-])cc2/C1=N/Nc1nc(-c2ccc(Br)cc2)cs1` [3a], the IC50 in [1] is 15.5 ± 3 µM; in data set [2], 18.5 ± 3.5 µM; on HIV-1 IN-LEDGF binding it was more than 100 µM; in data set [6], 4.3 ± 0.7 µM; on HIV-1 RT-associated RDDP (setting [11]), 8.5 ± 0.5 µM; in [7], 73.5 ± 13.5 µM. This molecule also displayed a CC50 in [3] of more than 100 µM. The “toxicity against MT4 cells” value in the data set with MT4 cells [4] was more than 100 µM. Further, the EC50 with HIV-1 [5] (setting [10]) is less than 20 µM; in the data set on HIV-1 [5] (viral replication in MT4 cells), 32 ± 3.2 µM.
The molecule `O=C1Nc2ccc([N+](=O)[O-])cc2/C1=N/Nc1nc(-c2ccccc2)cs1` [12a] gave a CC50 in data set [3] of more than 100 µM. Also, the EC50 with HIV-1 [5] (setting [10]) is more than 100 µM. The results for the IC50 (in data set [6]; on HIV-1 RT-associated RDDP) were 6 ± 1 µM and 13 ± 2 µM, respectively.
Turning to `O=C1Nc2ccc(Cl)cc2/C1=N/Nc1nc(-c2ccccc2)cs1` [12b], in data set [3], the CC50 stood at 70 ± 5 µM. The EC50 in the data set on HIV-1 [5] (setting [10]) is more than 70 µM. Also, the IC50 in data set [6] was found to be 5.4 ± 0.6 µM; on HIV-1 RT-associated RDDP (setting [11]) it was 9.4 ± 1.1 µM.
Taken in the same sequence, the figures for `Cn1c(-c2ccccc2)cs/c1=N\N=C1/C(=O)Nc2ccc([N+](=O)[O-])cc21` [12c] were 10 ± 1.2 µM, more than 10 µM, 3.6 ± 0.8 µM and 8.1 ± 0.1 µM.
Turning to `O=C1Nc2ccc(Cl)cc2[C@@](C#CC2CC2)(C(F)(F)F)O1` [EFV, efavirenz], in the data set with MT4 cells [8] (read-out: MT4 CC50, MT4 cells viability, ref Corona et al. (2014a)), the CC50 was more than 0.31 µM. Further, the “increase in IC50 vs wt RT, RDDP activity” value in the data set on HIV-1 RT K103N (RDDP) is reported as 9.1 fold; in the data set on HIV-1 RT Y181C (RDDP) it was 3.5 fold; in the data set with HIV-1 RT Y188L (RDDP) it was 14 fold.
With `CCOC(=O)C(=O)CC(=O)/C=C/c1cccn1Cc1ccccc1Cl` [RDS1759], the CC50 in the data set with MT4 cells [8] is more than 50 µM. In the data set on HIV-1 [9], the EC50 was 2100 nM.
On to `N#Cc1ccc(-c2csc(NN=C3C(=O)Nc4ccccc43)n2)cc1` [RMNC6, reference compound], for which the IC50 (in data set [1]; in data set [2]; at HIV-1 IN-LEDGF binding; in data set [7]) was more than 100 µM each time.
